Test results as given in patent US20200277571A1, “METHOD FOR AMPLIFYING CONE PHOTORECEPTORS OR ROD PHOTORECEPTORS USING DORSALIZATION SIGNAL TRANSMITTER OR VENTRALIZATION SIGNAL TRANSMITTER” (RIKEN, priority 2017, published 2020).

Test system: S-opsin, M-opsin, L-opsin
Test: Quantitative PCR of S-opsin, M-opsin, L-opsin after maturation culture in serum-free medium
Type: cell-based, human
Conditions: T3 added (0-8 nM) in serum-free DMEM/F12 after about day 190, not less than 30 days
Description: By a method similar to the methods described in Example 1 and Example 3, a cell aggregate containing a retinal tissue in a differentiation stage matured to the level that Muller cell was observed was prepared and culture was performed, in the serum-containing medium used, up to about day 190 to give a retinal tissue in a differentiation stage matured to the level that Muller cell was observed. Thereafter, by a method similar to the methods described in Example 11 and 12, further maturation was performed. That is, 0-1.35 nM BMP4 and 0-8 nM T3 were added to a medium obtained by adding 1% N2 supplement and 100 μM taurine but not adding 10% fetal calf serum to DMEM/F12 medium containing glutamic acid as a component, and culture was performed for not less than 30 days from the start of culture for further maturation. A cell aggregate containing a retinal tissue was recovered, quantitatively PCR was performed according to a conventional method, and the expression levels of S-opsin, M-opsin, L-opsin were confirmed. As a result, irrespective of the presence or absence of BMP4, the expression of S-opsin was promoted when T3 was absent.

SMILES: N[C@@H](Cc1cc(I)c(Oc2ccc(O)c(I)c2)c(I)c1)C(=O)O [T3, triodo-I-thyronine]
- expression of S-opsin: suppressed
